The subject of experiment [1] is multidrug-resistant Pseudomonas aeruginosa strain (S-2838 strain). Nature of the experiment: Test for protection against systemic infection in mouse with multidrug-resistant Pseudomonas aeruginosa. It is filed as in vivo. As to conditions: sc, 72 h, read-out: survival rate 3 days after the inoculation with bacteria. The protocol:
As mice, ICR male SPF mice (4 weeks old: 10 mice per group) were used. Clinically isolated multidrug-resistant Pseudomonas aeruginosa strain (S-2838 strain) cultured overnight on a Mueller-Hinton agar plate at 37° C. was cultured on a cation-adjusted Mueller Hinton medium for 5 hours, and then diluted 20-fold with a 10% mucin/phosphate buffer, thereby preparing an inoculum. An infection was induced by intraperitoneally inoculating the mice with the inoculum at 0.5 mL (about 10^6 CFU/mouse). Each test compound was dissolved in physiological saline, and 1 hour after the infection, the compound was subcutaneously administered once to the mice at 40 mg/kg. The control group was administered with the same amount of physiological saline used as a vehicle. The number of surviving mice was recorded 3 days after the infection.
A test for protection against systemic infection in a mouse with multidrug-resistant Pseudomonas aeruginosa was performed in the same manner as in Test Example 2.

Experiment [2] relates to Klebsiella pneumoniae Y-1020 strain producing KPC-3 and SHV-12 (strain B). Kind of experiment: MIC of test compound alone or with β-lactamase inhibitor at 4 μg/mL. As to conditions: for MIC: Klebsiella pneumoniae, Strain B. Format: cell-based. A digest of the protocol:
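Broth microdilution MIC of test compound tested alone or combined with a β-lactamase inhibitor fixed at 4 μg/mL, against the KPC-3/SHV-12-producing strain.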

In experiment [3] the test system is Escherichia coli TK-1747 strain producing CTX-M-15 (strain A). The experiment is described as above. Format: cell-based. The following applies: Escherichia coli. The protocol: (§1) By using a broth microdilution method, the combinational effect of a test compound and a β-lactamase inhibitor was evaluated.
(§2) The evaluation test for antibacterial activity was performed in the same manner as in Test Example 1.
Escherichia coli TK-1747 strain producing CTX-M-15 (hereinafter, called strain A),

In experiment [4] the test system is Escherichia coli TK-1765 strain producing CMY-2 (strain E). The experiment is described as above. The following applies: Escherichia coli. It is filed as cell-based. The protocol:
as §1, §2
Escherichia coli TK-1765 strain producing CMY-2 (hereinafter, called strain E)

[5] abbreviates: test compound alone (β-lactamase inhibitor N/A).

Results on one compound are retold here after patent US20220241249A1, “PHARMACEUTICAL COMPOSITION AND KIT CONTAINING NOVEL PENAM DERIVATIVE OR SALT THEREOF AND ONE OR MORE COMPOUNDS SELECTED FROM beta-LACTAMASE INHIBITORY COMPOUND AND ANTIBACTERIAL COMPOUND OR SALTS THEREOF” (priority 2019, published 2022).

A value given as a limit tells only on which side of the number the result lay.

Broadly, the MIC is the lowest concentration that inhibits growth of the organism.

In the case of `CC(C)(O/N=C(\C(=O)NC1C(=O)N2C[C@@](C(=O)O)(N3CCN(NC(=O)C(=O)c4ccc(O)c(O)c4Cl)C(=O)C3=O)S[C@H]12)c1csc(N)n1)C(=O)O` (stereo partly drawn) [Example 126, (3R,5R,6R)-6-((Z)-2-(2-aminothiazol-4-yl)-2-(((2-carboxypropan-2-yl)oxy)imino)aceta-mido)-3-(4-(2-(2-chloro-3,4-dihydroxy-phenyl)-2-oxoaceta-mido)-2,3-dioxopipera-zin-1-yl)-7-oxo-4-thia-1-azabicyclo[3.2.0]-heptane-3-carboxylic acid], the responders at 40 mg/kg in experiment [1] is ≥ 90%. Also, the minimal inhibitory concentration (MIC) in experiment [2] (AVI added at 4 μg/mL) worked out at 1 µg/mL; in experiment [2] (NAC added at 4 μg/mL), 0.12 µg/mL; in experiment [2] (ZID added at 4 μg/mL), 0.03 µg/mL; in experiment [2] (setting [5]), 4 µg/mL; in experiment [3] (AVI added at 4 μg/mL), 0.03 µg/mL; in experiment [3] (CVA added at 4 μg/mL) it was 0.03 µg/mL. The MIC is 0.03 µg/mL in experiment [3] (NAC added at 4 μg/mL); 0.06 µg/mL in experiment [3] (SBT added at 4 μg/mL); 0.06 µg/mL in experiment [3] (TAZ added at 4 μg/mL); < 0.015 µg/mL in experiment [3] (ZID added at 4 μg/mL); 0.12 µg/mL in experiment [3] (setting [5]); 2 µg/mL in experiment [4] (setting [5]). For the same compound, the MIC in experiment [4] (with AVI at 4 μg/mL) stood at 0.25 µg/mL; in experiment [4] (with TAZ at 4 μg/mL) it was 1 µg/mL; in experiment [4] (with VAB at 4 μg/mL) it was 0.5 µg/mL. In addition, the “antibacterial activity in combination with a β-lactamase inhibitor versus without” value in experiment [2] (for all the bacterial strains (strains A to E), summary of Tables 43 to 47) is “higher antibacterial activity”.
